# Measured values reported in US20070167408A1, “NOVEL ALKYL PHOSPHOLIPID DERIVATIVES WITH REDUCED CYTOTOXICITY AND USES THEREOF” (ZENTARIS GmbH, priority 2005, published 2007).
# Legend:
# [1] = system: Trypanosoma cruzi (Tulahuan-LACZ amstigotes in PEM); test: In vitro drug activity assay, protozoon A; format: cell-based; details: amastigotes in murine peritoneal macrophages, 3 days
# Method: (§1) In vitro activity of selected compounds of the invention against different protozoa was assessed as follows.
# Murine (CD1) peritoneal macrophages were harvested 24 hours after starch induction and dispensed into 96-well plates at a concentration of 4×10^5 mL. After 24 hours, the cells were infected with Trypanosoma cruzi Tulahuan LAC-Z amastigotes (grown and cultured according to Buckner et al., Infection and Immunity 1999, 67(1): 403-409). 24 hours later, the infected cells were exposed to the test compounds (compounds of the invention as well as known prior art compounds) for 3 days and 50 μL of 500 μM CPRG-1% Nonidet P-40 was added to each well. The plates were read after 2 to 5 hours at 570 nm (Buckner et al., Antimicrobial Agents and Chemotherapy 1996, 40(11): 2592-2597). ED50 values were calculated with Msxlfit (IDBS).
# (§2) The following protozoa were assessed: • A) Trypanosoma cruzi (Tulahuan-LACZ amstigotes in PEM, Lorente S O et al., Antimicrobial agents and chemotherapy 2004, 48(8): 2937-2950; Buckner et al., Infection and Immunity 1999, 67(1): 403-409; Buckner et al., Antimicrobial Agents and Chemotherapy 1996, 40(11): 2592-2597) • B) Trypanosoma brucei rhodesiense (strain STIB900, Lorente S O et al., Antimicrobial agents and chemotherapy 2004, 48(8): 2937-2950; Habtemariam S, BMC Pharmacology 2003, 3:6) • C) Plasmodium falciparum (strain K1, Korsinczky M et al., Antimicrobial agents and chemotherapy 2000, 44(8): 2100-2108; Thaitong S and Beale G H, Trans. R. Soc. Trop. Med. Hyg. 1981, 75: 271-273; Trager W and Jensen J B, Science 1976, 193: 673-675) • D) Plasmodium faiciparum (strain 3D7, Mu et al., PLoS Biology 2005, 3(10): e335)
# [2] = system: Cryptococcus gattii ATCC 32608; test: Anti-fungal broth microdilution (MIC), fungus J; format: cell-based; details: yeast protocol, more than 80% inhibition, 48 h
# Procedure, shortened: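 Broth microdilution per NCCLS M27-A (yeasts) and M38-A (filamentous fungi), compounds tested from 64 down to 0.125 μg/ml against 10^6 CFU/ml inocula. For filamentous fungi, MIC read after 48 to 72 h at 35° C as the concentration giving more than 50% visible growth inhibition.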
# [3] = system: Plasmodium faiciparum (strain 3D7); test: In vitro drug activity assay, protozoon D; format: cell-based, Plasmodium falciparum; details: strain 3D7, 3[H]-hypoxanthine method
# Method: as §1
# Plasmodium falciparum strain K1 and strain 3D7 parasites were cultured according to Trager W and Jensen J B (Science 1976, 193: 673-675). In vitro drug susceptibility assays with the test compounds were carried out according to Korsinczky M et al. (Antimicrobial agents and chemotherapy 2000, 44(8): 2100-2108) and Fivelman Q L et al. (Antimicrobial agents and chemotherapy 2004, 48(11): 4097-4102) using a ^3[H]-hypoxanthine radioisotope method. ED50 values were calculated with Msxlfit (IDBS).
# as §2
# [4] = system: Trypanosoma brucei rhodesiense (strain STIB900); test: In vitro drug activity assay, protozoon B; format: cell-based; details: bloodstream form trypomastigotes, 72 hours, Alamar Blue
# Method: as §1
# Trypanosoma brucei rhodesiense STIB900 bloodstream form trypomastigotes were maintained in HMI-18 medium (Hirumi H, Hirumi K, J Parasitol. 1989, 75(6):985-989) with 15% heat-inactivated fetal calf serum at 37° C., 5% CO2, humidified atmosphere. Trypomastigotes were washed and resuspended in fresh medium at a concentration of 2×10^5 mL. Test compounds were given to the trypomastigotes and plates were incubated for 72 hours at 37° C., 5% CO2, humidified atmosphere. At 72 hours the plates were assessed microscopically before Alamar Blue was added (Raz et al., Acta Trop. 1997, 68: 139-147). Plates were read after 5 to 6 hours at EX/EM 530/585 nm with a filter cutoff at 550 nm. ED50 values were calculated with Msxlfit (IDBS).
# as §2
# [5] = system: SKOV-3 (human ovary adenocarcinoma) cells; test: XTT cytotoxicity assay, SKOV-3 cells; format: cell-based
# Procedure, shortened: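 Exponentially growing SKOV-3 cells recovered 24 h after plating, then received freshly diluted compounds for 2 days of continuous exposure. Viability was read by formazan formation after 3 h with XTT-PMS at 37° C., 5% CO2. IC50 came from inhibition curves.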
# [6] = system: Candida parapsilosis ATCC 22019; test: Anti-fungal broth microdilution (MIC), fungus G; format: cell-based; details: yeast protocol, more than 80% inhibition, 48 h
# Procedure, shortened: (§3)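 Broth microdilution followed NCCLS M27-A for the Candida yeasts and M38-A for the Aspergillus filamentous strains, testing 64 down to 0.125 μg/ml in twofold steps against a 10^6 CFU/ml inoculum. For Aspergillus, MIC was read after 48 to 72 h at 35 °C as the concentration giving >50% visible growth inhibition.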
# [7] = system: Candida albicans TS3; test: Anti-fungal broth microdilution (MIC), fungus F; format: cell-based; details: yeast protocol, more than 80% inhibition, 48 h
# Procedure, shortened: as §3
# [8] = system: Aspergillus fumigatus ATCC 204305; test: Anti-fungal broth microdilution (MIC), fungus A; format: cell-based; details: filamentous protocol, more than 50% growth inhibition, 48 to 72 h
# Procedure, shortened: as §3
# [9] = system: Aspergillus fumigatus 322-384; test: Anti-fungal broth microdilution (MIC), fungus B; format: cell-based; details: filamentous protocol, more than 50% growth inhibition, 48 to 72 h
# Procedure, shortened: as §3
smiles,measurement,setting,value
"CCCCCCCCCCCCCCCCOP(=O)([O-])OCC[N+]1(C)CCCCC1 [Compound 2, Phosphoric acid hexadecyl ester 2-(1-methyl-piperidin-1-yl)-ethyl ester]","ED50 (μg/mL), protozoon A",[1],0.50 µg/mL
same,"MIC, fungus J",[2],0.75 µg/mL
same,"ED50 (μg/mL), protozoon D",[3],2.21 µg/mL
same,"ED50 (μg/mL), protozoon B",[4],17.50 µg/mL
same,SKOV-3 % INH [100 μM],[5]; second set of experiments,19.5%
same,"MIC, fungus G",[6],2 µg/mL
same,"MIC, fungus F",[7],1.5 µg/mL
same,"MIC, fungus A",[8],2 µg/mL
same,"MIC, fungus B",[9],2 µg/mL
"CCCCCCCCCCCCCCCCOP(=O)([O-])OCC[N+](C)(C)C [miltefosine, hexadecylphosphocholine, reference compound]","ED50 (μg/mL), protozoon A",[1],0.63 µg/mL
same,inhibition at 100 µM,"[5]; Homo sapiens, SK-OV-3, second set of experiments, read-out: SKOV-3 % INH [100 μM]",74.7%
